Numbered stars: 1 amine (or outer) side, 2 acyl side, 3 side chain; on linkers, the order of the positions; unused ones are H or OH. Bridge positions count the residues as written; N and C are the ends. Square brackets hold non-standard residues; d marks the D form. Peptide text beside a SMILES is read from it. * marks the point of attachment. hPhe(3,5-F2-4-CF3) = N[C@@H](CCc1cc(F)c(C(F)(F)F)c(F)c1)C(=O)O; hPhe(3-Cl-4-CF3) = N[C@@H](CCc1ccc(C(F)(F)F)c(Cl)c1)C(=O)O; hPhe(3-F,4-CF3) = N[C@@H](CCc1ccc(C(F)(F)F)c(F)c1)C(=O)O; NMePhe(4-CF3) = CN[C@@H](Cc1ccc(C(F)(F)F)cc1)C(=O)O; NMePhe(4-Cl) = CN[C@@H](Cc1ccc(Cl)cc1)C(=O)O; NMePhe(4-Me) = CN[C@@H](Cc1ccc(C)cc1)C(=O)O; X10 = C#Cc1cccc(C[C@H](N[*:1])C(=O)[*:2])c1; NMedβ3hAla = C[C@H](CC(=O)[*:2])N(C)[*:1]; NMeGly(cPent) = CN[C@H](C(=O)O)C1CCCC1; NMeCha = CN[C@@H](CC1CCCCC1)C(=O)O; NMehLeu = CN[C@@H](CCC(C)C)C(=O)O; Ala(cPr) = N[C@@H](CC1CC1)C(=O)O; Hyp = O=C(O)[C@@H]1C[C@@H](O)CN1; NMeAhp(2) = CCCCC[C@H](NC)C(=O)O; NMeI = CC[C@H](C)[C@H](NC)C(=O)O; NMeD = CN[C@@H](CC(=O)O)C(=O)O; NMeL = CN[C@@H](CC(C)C)C(=O)O; NMeV = CN[C@H](C(=O)O)C(C)C; d(β3hA) = C[C@@H](N)CC(=O)O; NMeC = CN[C@@H](CS)C(=O)O; NMeS = CN[C@@H](CO)C(=O)O; Morpholide = C1CN(*)CCO1; NMeA = CN[C@@H](C)C(=O)O; NMeAib = CNC(C)(C)C(=O)O; Nle = CCCC[C@H](N)C(=O)O; Piperidide = C1CCN(*)CC1; Pyrrolidide = C1CCN(*)C1; Ac5c = NC1(C(=O)O)CCCC1; Aze = O=C(O)[C@@H]1CCN1; CH2CMe2OH = CC(C)(O)C*; Cyclobutyl = C1CC(*)C1; Aib = CC(C)(N)C(=O)O; Isopentyl = CC(C)CC*; NEtG = CCNCC(=O)O; Sar = CNCC(=O)O
Key:
[1] = target: protein-protein interaction between Kras and SOS1 (biotin-tagged human Kras loaded with GDP, His-tagged human SOS1) (Homo sapiens (Human), UniProt P01116, G12D); experiment: Protein-protein interaction inhibition between Kras and SOS1 (KrasG12D-SOS PPI) using AlphaScreen; format: biochemical; details: AlphaScreen; biotin-tagged human Kras loaded with GDP, His-tagged human SOS1; read-out: KRAS G12D-SOS PPI IC50;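 note: kras produced in E. coli, Ni-coupled donor beads and streptavidin acceptor beads, excitation 680 nm with emission detected at 520–620 nm via singlet oxygen transfer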
[2] = tested on: Human pancreatic cancer cell line AsPC-1 (G12D mutation Kras); experiment: AsPC-1 cell growth inhibition (AsPC-1 CGI); format: cell-based; details: read-out: AsPC-1 cell growth inhibition, 50% growth inhibitory concentration (IC50 value); 96 hours, CellTiter-Glo, values classified in ranges
Protocol: Test compounds were serially dilated with dimethyl sulfoxide, and 200 nL was then dispensed to a U-bottom 96-well plate using Labcyte Echo. […] The cell suspension was dispensed to a. plate containing a test compound at 100 μL per well and incubated at 37° C. in a 5% carbon dioxide gas incubator. 96 hours later, 80 μL of CellTiter-Glo (Promega) was added to each well and fluorescence was measured.

Row | SMILES | IC50 [1] [nM] | IC50 [2] [nM]
1 | CC[C@H](C)[C@@H]1NC(=O)[C@H](CC(C)C)N(C)C(=O)C[C@@H](C(=O)N2CCCCC2)N(C)C(=O)[C@H](C2CCCC2)N(C)C(=O)C2(CCCC2)NC(=O)[C@@H]2CCCN2C(=O)[C@H](CCc2ccc(C(F)(F)F)c(Cl)c2)NC(=O)CN(C)C(=O)[C@H](COC2CCC2)N(C)C(=O)[C@@H]2CCN2C(=O)[C@H](C)N(C)C1=O [Compound 835] ([NMeL]I[NMeA][Aze][NMeS](Cyclobutyl)[Sar][hPhe(3-Cl-4-CF3)]P[Ac5c][NMeGly(cPent)][NMeD]-Piperidide; lactam N-11) | 0.54 | ≤ 20
2 | CC(C)C[C@H]1C(=O)N[C@@H](CC2CC2)C(=O)N(C)[C@@H](C)C(=O)N2CC[C@H]2C(=O)N(C)[C@@H](CC2CCCCC2)C(=O)N(C)CC(=O)N[C@@H](CCc2ccc(C(F)(F)F)c(Cl)c2)C(=O)N2CCC[C@H]2C(=O)NC2(CCCC2)C(=O)N(C)[C@@H](C(C)C)C(=O)N(C)[C@H](C(=O)N2CCCCC2)CC(=O)N1C [Compound 358] ([NMeL][Ala(cPr)][NMeA][Aze][NMeCha][Sar][hPhe(3-Cl-4-CF3)]P[Ac5c][NMeV][NMeD]-Piperidide; lactam N-11) | 33 | > 500
3 | CC[C@H](C)[C@@H]1NC(=O)[C@H](C)N(C)C(=O)C[C@@H](C)N(C)C(=O)[C@H](CC(C)C)NC(=O)C(C)(C)N(C)C(=O)[C@H](CC(C)C)NC(=O)[C@H](CCc2ccc(C(F)(F)F)c(Cl)c2)NC(=O)CN(C)C(=O)[C@H](Cc2ccc(C(F)(F)F)cc2)N(C)C(=O)CN(C)C(=O)CN(C)C1=O [Compound 1397] (cyclo(I[Sar][Sar][NMePhe(4-CF3)][Sar][hPhe(3-Cl-4-CF3)]L[NMeAib]L[NMedβ3hAla][NMeA])) | 6.4 | > 500
4 | CC[C@H](C)[C@@H]1NC(=O)[C@H](CCC(C)C)N(C)C(=O)C[C@@H](C(=O)N2CCOCC2)N(C)C(=O)[C@H]([C@@H](C)CC)N(C)C(=O)C2(CCCC2)NC(=O)[C@@H]2CCCN2C(=O)[C@H](CCc2ccc(C(F)(F)F)c(Cl)c2)NC(=O)CN(C)C(=O)[C@H](Cc2ccc(C(F)(F)F)cc2)N(C)C(=O)[C@@H]2CCN2C(=O)[C@H](C)NC1=O [Compound 1356] ([NMehLeu]IA[Aze][NMePhe(4-CF3)][Sar][hPhe(3-Cl-4-CF3)]P[Ac5c][NMeI][NMeD]-Morpholide; lactam N-11) | 1.1 | ≤ 20
5 | CC[C@H](C)[C@@H]1NC(=O)[C@H](CC(C)C)N(C)C(=O)C[C@@H](C)N(C)C(=O)[C@H]([C@@H](C)CC)NC(=O)C(C)(C)N(C)C(=O)[C@H](CC(C)C)NC(=O)[C@H](CCc2ccc(C(F)(F)F)c(F)c2)NC(=O)CN(C)C(=O)[C@H](Cc2ccc(Cl)cc2)N(C)C(=O)CN(C)C(=O)CN(C)C1=O [Compound 800] (cyclo(I[Sar][Sar][NMePhe(4-Cl)][Sar][hPhe(3-F,4-CF3)]L[NMeAib]I[NMedβ3hAla][NMeL])) | 86 | > 500
6 | CC[C@H](C)[C@@H]1NC(=O)[C@H](C)N(C)C(=O)C[C@@H](C)N(C)C(=O)[C@H](CC(C)C)NC(=O)C(C)(C)N(C)C(=O)[C@H](CC(C)C)NC(=O)[C@H](CCc2ccc(C(F)(F)F)c(F)c2)NC(=O)CN(C)C(=O)[C@H](CC2CCCCC2)N(C)C(=O)CN(C)C(=O)CN(C)C1=O [Compound 842] (cyclo(I[Sar][Sar][NMeCha][Sar][hPhe(3-F,4-CF3)]L[NMeAib]L[NMedβ3hAla][NMeA])) | 43 | > 500
7 | CCO[C@@H]1C[C@H]2C(=O)NC3(CCCC3)C(=O)N(C)[C@@H]([C@@H](C)CC)C(=O)N(C)[C@H](C)CC(=O)N(C)[C@@H](CC(C)C)C(=O)N[C@@H]([C@@H](C)CC)C(=O)N(C)[C@@H](C)C(=O)N3CC[C@H]3C(=O)N(C)[C@@H](Cc3ccc(C(F)(F)F)cc3)C(=O)N(C)CC(=O)N[C@@H](CCc3ccc(C(F)(F)F)c(Cl)c3)C(=O)N2C1 [Compound 301] (cyclo([Ac5c][NMeI][NMedβ3hAla][NMeL]I[NMeA][Aze][NMePhe(4-CF3)][Sar][hPhe(3-Cl-4-CF3)][Hyp](Et))) | 0.74 | ≤ 20
8 | CCCCC[C@H]1C(=O)N[C@@H]([C@@H](C)CC)C(=O)N[C@@H](C)C(=O)N2CC[C@H]2C(=O)N(C)[C@@H](Cc2ccc(C)cc2)C(=O)N(C)CC(=O)N[C@@H](CCc2ccc(C(F)(F)F)c(Cl)c2)C(=O)N2CCC[C@H]2C(=O)NC2(CCCC2)C(=O)N(C)[C@@H](C2CCCC2)C(=O)N(C)[C@H](C(=O)N(C)C)CC(=O)N1C [Compound 1059] ([NMeAhp(2)]IA[Aze][NMePhe(4-Me)][Sar][hPhe(3-Cl-4-CF3)]P[Ac5c][NMeGly(cPent)][NMeD]-NMe2; lactam N-11) | 0.64 | ≤ 20
9 | CCO[C@@H]1C[C@H]2C(=O)NC3(CCCC3)C(=O)N(C)[C@@H]([C@@H](C)CC)C(=O)N(C)[C@H](C)CC(=O)N(C)[C@@H](CC(C)C)C(=O)N[C@@H]([C@@H](C)CC)C(=O)N(C)CC(=O)N(C)CC(=O)N(C)[C@@H](Cc3ccc(C(F)(F)F)cc3)C(=O)N(C)CC(=O)N[C@@H](CCc3ccc(C(F)(F)F)c(Cl)c3)C(=O)N2C1 [Compound 695] (cyclo([Ac5c][NMeI][NMedβ3hAla][NMeL]I[Sar][Sar][NMePhe(4-CF3)][Sar][hPhe(3-Cl-4-CF3)][Hyp](Et))) | 2.3 | ≤ 20
10 | CC[C@H](C)[C@@H]1NC(=O)[C@H](COCC(C)(C)O)N(C)C(=O)C[C@@H](C)NC(=O)[C@H](CC(C)C)N(C)C(=O)C(C)(C)NC(=O)[C@H](CC(C)C)N(C)C(=O)[C@H](CCc2ccc(C(F)(F)F)c(Cl)c2)NC(=O)CN(C)C(=O)[C@H](COCCC(C)C)N(C)C(=O)CN(C)C(=O)CN(CC)C1=O [Compound 1476] (cyclo([Aib][NMeL][d(β3hA)][NMeS](CH2CMe2OH)I[NEtG][Sar][NMeS](Isopentyl)[Sar][hPhe(3-Cl-4-CF3)][NMeL])) | 46 | > 500
11 | CCCCC[C@H]1C(=O)N[C@@H]([C@@H](C)CC)C(=O)N(C)[C@@H](C)C(=O)N2CC[C@H]2C(=O)N(C)[C@@H](Cc2ccc(C)cc2)C(=O)N(C)CC(=O)N[C@@H](CCc2ccc(C(F)(F)F)c(Cl)c2)C(=O)N2CCC[C@H]2C(=O)NC2(CCCC2)C(=O)N(C)[C@@H]([C@@H](C)CC)C(=O)N(C)[C@H](C(=O)N(C)C)CC(=O)N1C [Compound 896] ([NMeAhp(2)]I[NMeA][Aze][NMePhe(4-Me)][Sar][hPhe(3-Cl-4-CF3)]P[Ac5c][NMeI][NMeD]-NMe2; lactam N-11) | 1.1 | ≤ 20
12 | CC[C@H](C)[C@@H]1NC(=O)[C@H](CC(C)C)N(C)C(=O)CSC[C@@H](C(=O)N(C)C)N(C)C(=O)[C@H]([C@@H](C)CC)N(C)C(=O)C2(CCCC2)NC(=O)[C@@H]2CCCN2C(=O)[C@H](CCc2ccc(C(F)(F)F)c(Cl)c2)NC(=O)CN(C)C(=O)[C@H](Cc2ccc(C)cc2)N(C)C(=O)CN(C)C(=O)CN(C)C1=O [Compound 2178] ({CH2CO}-[NMeL]I[Sar][Sar][NMePhe(4-Me)][Sar][hPhe(3-Cl-4-CF3)]P[Ac5c][NMeI][NMeC]-NMe2; thioether N-11) | 160 | > 500
13 | CC[C@H](C)[C@@H]1NC(=O)[C@H](CCC(C)C)N(C)C(=O)C[C@@H](C(=O)N2CCCC2)N(C)C(=O)[C@H]([C@@H](C)CC)N(C)C(=O)C2(CCCC2)NC(=O)[C@@H]2CCCN2C(=O)[C@H](CCc2ccc(C(F)(F)F)c(Cl)c2)NC(=O)CN(C)C(=O)[C@H](Cc2ccc(C(F)(F)F)cc2)N(C)C(=O)[C@@H]2CCN2C(=O)[C@H](C)NC1=O [Compound 1310] ([NMehLeu]IA[Aze][NMePhe(4-CF3)][Sar][hPhe(3-Cl-4-CF3)]P[Ac5c][NMeI][NMeD]-Pyrrolidide; lactam N-11) | 0.87 | ≤ 20
14 | CC[C@H](C)[C@@H]1NC(=O)[C@H](CC(C)C)N(C)C(=O)C[C@@H](C)N(C)C(=O)[C@H](C2CCCC2)N(C)C(=O)C2(CCCC2)NC(=O)[C@@H]2CCCN2C(=O)[C@H](CCc2cc(F)c(C(F)(F)F)c(F)c2)NC(=O)CN(C)C(=O)[C@H](Cc2ccc(C(F)(F)F)cc2)N(C)C(=O)[C@@H]2CCN2C(=O)[C@H](C)N(C)C1=O [Compound 371] (cyclo([Ac5c][NMeGly(cPent)][NMedβ3hAla][NMeL]I[NMeA][Aze][NMePhe(4-CF3)][Sar][hPhe(3,5-F2-4-CF3)]P)) | 1.3 | ≤ 20
15 | C#Cc1cccc(C[C@@H]2NC(=O)CN(C)C(=O)[C@H](Cc3ccc(Cl)cc3)N(C)C(=O)CN(C)C(=O)CN(C)C(=O)[C@H]([C@@H](C)CC)NC(=O)[C@H](CC(C)C)N(C)C(=O)C[C@@H](C(=O)N3CCCCC3)N(C)C(=O)[C@H](CC(C)C)NC(=O)C(C)(C)N(C)C(=O)[C@H](CCCC)NC2=O)c1 [Compound 2142, (3S,9S,12S,18S,27S,30S,34S)-9-butyl-18-[(4-chlorophenyl)methyl]-12-[(3-ethynylphenyl)methyl]-3,30-diisobutyl-1,6,6,7,16,19,22,25,31-nonamethyl-27-[(1S)-1-methylpropyl]-34-(piperidine-1-carbonyl)-1,4,7,10,13,16,19,22,25,28,31-undecazacyclotetratriacontane-2,5,8,11,14,17,20,23,26,29,32-undecone] ([NMeL]I[Sar][Sar][NMePhe(4-Cl)][Sar][X10][Nle][NMeAib]L[NMeD]-Piperidide; lactam N-11) | 44 | > 500
16 | CCCCC[C@H]1C(=O)N[C@@H]([C@@H](C)CC)C(=O)N[C@@H](C)C(=O)N2CC[C@H]2C(=O)N(C)[C@@H](Cc2ccc(C(F)(F)F)cc2)C(=O)N(C)CC(=O)N[C@@H](CCc2ccc(C(F)(F)F)c(Cl)c2)C(=O)N2CCC[C@H]2C(=O)NC2(CCCC2)C(=O)N(C)[C@@H]([C@@H](C)CC)C(=O)N(C)[C@H](C(=O)N2CCOCC2)CC(=O)N1C [Compound 54] ([NMeAhp(2)]IA[Aze][NMePhe(4-CF3)][Sar][hPhe(3-Cl-4-CF3)]P[Ac5c][NMeI][NMeD]-Morpholide; lactam N-11) | 1.9 | ≤ 20

Reference: patent publication US20240148821A1, “PHARMACEUTICAL USE OF CYCLIC PEPTIDE COMPOUND” (CHUGAI SEIYAKU KABUSHIKI KAISHA, priority 2021, published 2024)
